In patent US8030478B2, “Method for nucleic acid replication and novel artificial base pairs” (priority 2005, dated 2011):
Like-named read-outs stand apart in the source and are kept apart here.

Target: T7 RNA polymerase (Escherichia phage T7, UniProt P00573)
Conditions: for Composition of nucleotide incorporated as 5′ neighbor of A: Cp / Composition of nucleotide incorporated as 5′ neighbor of A: Up / Composition of nucleotide incorporated as 5′ neighbor of A: Ap / Composition of nucleotide incorporated as 5′ neighbor of A: Np (Pa′p) / Composition of nucleotide incorporated as 5′ neighbor of A: Gp: [α-32P]ATP; for Composition of nucleotide incorporated as 5′ neighbor of U: Np (Pa′p) / Composition of nucleotide incorporated as 5′ neighbor of U: Ap / Composition of nucleotide incorporated as 5′ neighbor of U: Gp / Composition of nucleotide incorporated as 5′ neighbor of U: Up / Composition of nucleotide incorporated as 5′ neighbor of U: Cp: [α-32P]UTP
[1] = Entry 7, template temp35Ds-3, natural NTP 1 mM, Pa′ 1 mM, theoretical [0]
[2] = Entry 7, template temp35Ds-3, natural NTP 1 mM, Pa′ 1 mM, theoretical [1]
[3] = Entry 8, template temp35Ds-3, natural NTP 1 mM, Pa′ 3 mM, theoretical [0]
[4] = Entry 8, template temp35Ds-3, natural NTP 1 mM, Pa′ 3 mM, theoretical [1]
[5] = Entry 9, template temp35A-3, natural NTP 1 mM, Pa′ 1 mM, theoretical [0]
[6] = Entry 9, template temp35A-3, natural NTP 1 mM, Pa′ 1 mM, theoretical [1]
[7] = Entry 10, template temp35A-3, natural NTP 1 mM, Pa′ 3 mM, theoretical [0]
[8] = Entry 10, template temp35A-3, natural NTP 1 mM, Pa′ 3 mM, theoretical [1]
[9] = Entry 11, template temp35G-3, natural NTP 1 mM, Pa′ 1 mM, theoretical [0]
[10] = Entry 11, template temp35G-3, natural NTP 1 mM, Pa′ 1 mM, theoretical [1]
[11] = Entry 12, template temp35G-3, natural NTP 1 mM, Pa′ 3 mM, theoretical [0]
[12] = Entry 12, template temp35G-3, natural NTP 1 mM, Pa′ 3 mM, theoretical [1]
[13] = Entry 25, template DNA12, natural NTP 3 mM, Pa′ 3 mM, theoretical [6]
[14] = Entry 27, template DNAcont4, natural NTP 3 mM, Pa′ 3 mM, theoretical [6]
[15] = Entry 32, template DNA11, natural NTP 3 mM, Pa′ 3 mM, theoretical [4]
[16] = Entry 33, template DNA12, natural NTP 3 mM, Pa′ 3 mM, theoretical [4]
[17] = Entry 35, template DNAcont4, natural NTP 3 mM, Pa′ 3 mM, theoretical [4]

Sequence of T7 RNA polymerase (P00573 whole entry): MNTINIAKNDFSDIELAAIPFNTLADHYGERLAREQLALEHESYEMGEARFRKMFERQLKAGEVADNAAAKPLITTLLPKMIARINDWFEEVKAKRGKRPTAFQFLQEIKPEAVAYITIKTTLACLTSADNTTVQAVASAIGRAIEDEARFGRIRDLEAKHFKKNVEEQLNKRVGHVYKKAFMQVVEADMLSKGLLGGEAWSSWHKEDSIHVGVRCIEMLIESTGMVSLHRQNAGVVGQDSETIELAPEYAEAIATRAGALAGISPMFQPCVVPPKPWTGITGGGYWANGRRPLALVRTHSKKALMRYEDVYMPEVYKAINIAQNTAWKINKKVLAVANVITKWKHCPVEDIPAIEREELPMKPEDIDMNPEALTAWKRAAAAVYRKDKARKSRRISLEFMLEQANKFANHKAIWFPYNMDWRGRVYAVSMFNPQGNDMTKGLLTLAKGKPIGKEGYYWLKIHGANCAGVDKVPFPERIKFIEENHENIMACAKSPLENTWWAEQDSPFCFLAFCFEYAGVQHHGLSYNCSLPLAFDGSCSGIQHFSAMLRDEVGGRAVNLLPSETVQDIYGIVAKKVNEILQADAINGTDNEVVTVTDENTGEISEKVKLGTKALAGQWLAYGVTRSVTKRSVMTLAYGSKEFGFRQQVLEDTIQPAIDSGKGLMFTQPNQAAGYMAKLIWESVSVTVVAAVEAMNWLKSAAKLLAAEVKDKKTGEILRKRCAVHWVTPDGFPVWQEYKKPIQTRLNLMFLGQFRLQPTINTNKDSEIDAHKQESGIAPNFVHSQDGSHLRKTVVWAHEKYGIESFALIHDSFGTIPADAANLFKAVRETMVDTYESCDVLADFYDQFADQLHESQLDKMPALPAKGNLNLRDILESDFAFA
Procedure: Transcription (20 μl) was accomplished in 40 mM Tris-HCl buffer (pH 8.0) containing 24 mM MgCl2, 2 mM spermidine, 5 mM DTT, 0.01% Triton X-100, 1-3 mM each natural NTP, 0-3 mM Pa′TP, 0-3 mM DsTP, 10 mM GMP, 2 μM template DNA (for 17-mer transcript synthesis) or 0.5 μM template DNA (for tRNA transcript synthesis), and 2.5 units/μl T7 RNA polymerase (TAKARA). […] For nucleotide composition analysis in transcripts (Non-patent Documents 17 and 33), the transcripts were internally labeled with 2 μCi [α-^32P]UTP or [α-^32P]ATP (Amersham). After the transcription, the products were digested with 0.75 units of RNase T2 at 37° C. for 2 hours in 10 μl of 15 mM sodium acetate buffer (pH 4.5). For 17-mer analysis, 0.05 A260 units of E. coli tRNA (Sigma) was added to the digestion reaction solution. The digestion products were analyzed by 2D-TLC (HPTLC plate, 100×100 mm, Merck). The developing solvents used for the first and second dimensions were isobutyric acid-ammonia-water (66:1:33 v/v/v) and isopropyl alcohol-HCl-water (70:15:15 v/v/v or 75:15:10 v/v/v for Pa′ transcripts), respectively. Spots of the labeled nucleotides on the TLC plate were analyzed with a bio-imaging analyzer.
The internally ^32P-labeled transcripts were digested with Rnase T2, and the resulting labeled nucleoside 3′-monophosphates were analyzed by 2D thin-layer chromatography (2D-TLC).

SMILES: CC#Cc1cc(C=O)n([C@@H]2O[C@H](COP(=O)(O)OP(=O)(O)OP(=O)(O)O)[C@@H](O)[C@H]2O)c1 [Pa′TP, 4-Propynyl-1-(β-D-ribofuranosyl)pyrrole-2-carbaldehyde 5′-triphosphate]
- Composition of nucleotide incorporated as 5′ neighbor of A: Cp [1]: 0.01 [0]
- Composition of nucleotide incorporated as 5′ neighbor of A: Up [1]: 0.02 [0]
- Composition of nucleotide incorporated as 5′ neighbor of A: Ap [2]: 1.03 [1]
- Composition of nucleotide incorporated as 5′ neighbor of A: Np (Pa′p) [2]: 0.95 [1]
- Composition of nucleotide incorporated as 5′ neighbor of A: Gp (Entry 7, template temp35Ds-3, natural NTP 1 mM, Pa′ 1 mM, theoretical [2]): 2.00 [2]
- Composition of nucleotide incorporated as 5′ neighbor of A: Cp [3]: 0.01 [0]
- Composition of nucleotide incorporated as 5′ neighbor of A: Up [3]: 0.02 [0]
- Composition of nucleotide incorporated as 5′ neighbor of A: Ap [4]: 1.01 [1]
- Composition of nucleotide incorporated as 5′ neighbor of A: Np (Pa′p) [4]: 0.97 [1]
- Composition of nucleotide incorporated as 5′ neighbor of A: Gp (Entry 8, template temp35Ds-3, natural NTP 1 mM, Pa′ 3 mM, theoretical [2]): 1.99 [2]
- Composition of nucleotide incorporated as 5′ neighbor of A: Cp [5]: n.d. [0]
- Composition of nucleotide incorporated as 5′ neighbor of A: Np (Pa′p) [5]: n.d. [0]
- Composition of nucleotide incorporated as 5′ neighbor of A: Ap [6]: 0.99 [1]
- Composition of nucleotide incorporated as 5′ neighbor of A: Up [6]: 1.03 [1]
- Composition of nucleotide incorporated as 5′ neighbor of A: Gp (Entry 9, template temp35A-3, natural NTP 1 mM, Pa′ 1 mM, theoretical [2]): 1.98 [2]
- Composition of nucleotide incorporated as 5′ neighbor of A: Cp [7]: 0.01 [0]
- Composition of nucleotide incorporated as 5′ neighbor of A: Np (Pa′p) [7]: n.d. [0]
- Composition of nucleotide incorporated as 5′ neighbor of A: Ap [8]: 0.99 [1]
- Composition of nucleotide incorporated as 5′ neighbor of A: Up [8]: 1.00 [1]
- Composition of nucleotide incorporated as 5′ neighbor of A: Gp (Entry 10, template temp35A-3, natural NTP 1 mM, Pa′ 3 mM, theoretical [2]): 1.99 [2]
- Composition of nucleotide incorporated as 5′ neighbor of A: Np (Pa′p) [9]: n.d. [0]
- Composition of nucleotide incorporated as 5′ neighbor of A: Up [9]: 0.01 [0]
- Composition of nucleotide incorporated as 5′ neighbor of A: Ap [10]: 1.01 [1]
- Composition of nucleotide incorporated as 5′ neighbor of A: Cp [10]: 1.00 [1]
- Composition of nucleotide incorporated as 5′ neighbor of A: Gp (Entry 11, template temp35G-3, natural NTP 1 mM, Pa′ 1 mM, theoretical [2]): 1.98 [2]
- Composition of nucleotide incorporated as 5′ neighbor of A: Np (Pa′p) [11]: n.d. [0]
- Composition of nucleotide incorporated as 5′ neighbor of A: Up [11]: 0.01 [0]
- Composition of nucleotide incorporated as 5′ neighbor of A: Ap [12]: 1.00 [1]
- Composition of nucleotide incorporated as 5′ neighbor of A: Cp [12]: 1.01 [1]
- Composition of nucleotide incorporated as 5′ neighbor of A: Gp (Entry 12, template temp35G-3, natural NTP 1 mM, Pa′ 3 mM, theoretical [2]): 1.98 [2]
- Composition of nucleotide incorporated as 5′ neighbor of A: Up (Entry 24, template DNA11, natural NTP 3 mM, Pa′ 3 mM, theoretical [0]): 0.09 [0]
- Composition of nucleotide incorporated as 5′ neighbor of A: Np (Pa′p) (Entry 24, template DNA11, natural NTP 3 mM, Pa′ 3 mM, theoretical [1]): 0.97 [1]
- Composition of nucleotide incorporated as 5′ neighbor of A: Ap (Entry 24, template DNA11, natural NTP 3 mM, Pa′ 3 mM, theoretical [5]): 5.08 [5]
- Composition of nucleotide incorporated as 5′ neighbor of A: Gp (Entry 24, template DNA11, natural NTP 3 mM, Pa′ 3 mM, theoretical [6]): 5.98 [6]
- Composition of nucleotide incorporated as 5′ neighbor of A: Cp (Entry 24, template DNA11, natural NTP 3 mM, Pa′ 3 mM, theoretical [7]): 6.88 [7]
- Composition of nucleotide incorporated as 5′ neighbor of A: Up (Entry 25, template DNA12, natural NTP 3 mM, Pa′ 3 mM, theoretical [0]): 0.07 [0]
- Composition of nucleotide incorporated as 5′ neighbor of A: Np (Pa′p) (Entry 25, template DNA12, natural NTP 3 mM, Pa′ 3 mM, theoretical [1]): 0.98 [1]
- Composition of nucleotide incorporated as 5′ neighbor of A: Ap [13]: 6.05 [6]
- Composition of nucleotide incorporated as 5′ neighbor of A: Gp [13]: 5.94 [6]
- Composition of nucleotide incorporated as 5′ neighbor of A: Cp (Entry 25, template DNA12, natural NTP 3 mM, Pa′ 3 mM, theoretical [7]): 6.96 [7]
- Composition of nucleotide incorporated as 5′ neighbor of A: Np (Pa′p) (Entry 27, template DNAcont4, natural NTP 3 mM, Pa′ 3 mM, theoretical [0]): n.d. [0]
- Composition of nucleotide incorporated as 5′ neighbor of A: Up (Entry 27, template DNAcont4, natural NTP 3 mM, Pa′ 3 mM, theoretical [1]): 1.06 [1]
- Composition of nucleotide incorporated as 5′ neighbor of A: Ap [14]: 6.04 [6]
- Composition of nucleotide incorporated as 5′ neighbor of A: Gp [14]: 6.00 [6]
- Composition of nucleotide incorporated as 5′ neighbor of A: Cp (Entry 27, template DNAcont4, natural NTP 3 mM, Pa′ 3 mM, theoretical [7]): 6.90 [7]
- Composition of nucleotide incorporated as 5′ neighbor of U: Np (Pa′p) (Entry 32, template DNA11, natural NTP 3 mM, Pa′ 3 mM, theoretical [0]): 0.01 [0]
- Composition of nucleotide incorporated as 5′ neighbor of U: Ap (Entry 32, template DNA11, natural NTP 3 mM, Pa′ 3 mM, theoretical [2]): 2.01 [2]
- Composition of nucleotide incorporated as 5′ neighbor of U: Gp [15]: 3.98 [4]
- Composition of nucleotide incorporated as 5′ neighbor of U: Up [15]: 4.00 [4]
- Composition of nucleotide incorporated as 5′ neighbor of U: Cp (Entry 32, template DNA11, natural NTP 3 mM, Pa′ 3 mM, theoretical [5]): 5.01 [5]
- Composition of nucleotide incorporated as 5′ neighbor of U: Np (Pa′p) (Entry 33, template DNA12, natural NTP 3 mM, Pa′ 3 mM, theoretical [0]): 0.01 [0]
- Composition of nucleotide incorporated as 5′ neighbor of U: Ap (Entry 33, template DNA12, natural NTP 3 mM, Pa′ 3 mM, theoretical [2]): 2.00 [2]
- Composition of nucleotide incorporated as 5′ neighbor of U: Cp [16]: 4.05 [4]
- Composition of nucleotide incorporated as 5′ neighbor of U: Gp [16]: 3.94 [4]
- Composition of nucleotide incorporated as 5′ neighbor of U: Up [16]: 4.01 [4]
- Composition of nucleotide incorporated as 5′ neighbor of U: Np (Pa′p) (Entry 35, template DNAcont4, natural NTP 3 mM, Pa′ 3 mM, theoretical [0]): n.d. [0]
- Composition of nucleotide incorporated as 5′ neighbor of U: Ap (Entry 35, template DNAcont4, natural NTP 3 mM, Pa′ 3 mM, theoretical [2]): 2.02 [2]
- Composition of nucleotide incorporated as 5′ neighbor of U: Gp [17]: 4.00 [4]
- Composition of nucleotide incorporated as 5′ neighbor of U: Up [17]: 3.97 [4]
- Composition of nucleotide incorporated as 5′ neighbor of U: Cp (Entry 35, template DNAcont4, natural NTP 3 mM, Pa′ 3 mM, theoretical [5]): 5.01 [5]
